ChEMBL document CHEMBL1201862, “PubChem BioAssay data set” (2004)
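Where inhibition never reached the appropriate level, the endpoint shown equals the highest concentration tested. Otherwise, values were interpolated linearly from a five-concentration, 48-hour dose response in 96-well plates. The concentration for 50% growth inhibition is given as GI50.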 Activity calls are given as the source filed them. Rule as the data show it: active = GI50 up to about 1.1 µM and inactive = higher.

Assays:
Experiment in all cases: NCI anticancer screen, dose series, 48 h
[1] = test system: 786-0
[2] = test system: A498
[3] = test system: A549
[4] = test system: ACHN
[5] = test system: BT-549
[6] = test system: CAKI-1
[7] = test system: COLO 205
[8] = test system: DU-145
[9] = test system: EKVX
[10] = test system: HCC 2998
[11] = test system: HCT-116
[12] = test system: HCT-15
[13] = test system: HL-60
[14] = test system: HOP-62
[15] = test system: HOP-92
[16] = test system: HT-29
[17] = test system: Hs-578T
[18] = test system: IGROV-1
[19] = test system: KM12
[20] = test system: LOX IMVI
[21] = test system: M14
[22] = test system: MCF7
[23] = test system: MDA-MB-231
[24] = test system: MDA-MB-435
[25] = test system: MDA-N
[26] = test system: MOLT-4
[27] = test system: Malme-3M
[28] = test system: NCI-H226
[29] = test system: NCI-H23
[30] = test system: NCI-H460
[31] = test system: NCI-H522
[32] = test system: NCI/ADR-RES
[33] = test system: OVCAR-3
[34] = test system: OVCAR-4
[35] = test system: OVCAR-5
[36] = test system: OVCAR-8
[37] = test system: PC-3
[38] = test system: RPMI-8226
[39] = test system: RXF 393
[40] = test system: SF-268
[41] = test system: SF-295
[42] = test system: SF-539
[43] = test system: SK-MEL-28
[44] = test system: SK-MEL-2
[45] = test system: SK-MEL-5
[46] = test system: SK-OV-3
[47] = test system: SN12C
[48] = test system: SNB-19
[49] = test system: SNB-75
[50] = test system: SR
[51] = test system: SW-620
[52] = test system: T47D
[53] = test system: TK-10
[54] = test system: U-251
[55] = test system: UACC-257
[56] = test system: UACC-62
[57] = test system: UO-31
[58] = test system: K562

COc1ccccc1OC(=O)/C=C/c1ccccc1
GI50 [1]: > 100 µM (inactive)
GI50 [2]: > 100 µM (inactive)
GI50 [3]: > 100 µM (inactive)
GI50 [4]: > 100 µM (inactive)
GI50 [5]: > 100 µM (inactive)
GI50 [6]: > 100 µM (inactive)
GI50 [7]: > 100 µM (inactive)
GI50 [8]: > 100 µM (inactive)
GI50 [9]: > 100 µM (inactive)
GI50 [10]: > 100 µM (inactive)
GI50 [11]: > 100 µM (inactive)
GI50 [12]: > 100 µM
GI50 [13]: 64.1 µM (inactive)
GI50 [14]: 52.1 µM (inactive)
GI50 [15]: > 100 µM (inactive)
GI50 [16]: > 100 µM (inactive)
GI50 [17]: > 100 µM (inactive)
GI50 [18]: > 100 µM (inactive)
GI50 [19]: > 100 µM (inactive)
GI50 [20]: > 100 µM (inactive)
GI50 [21]: > 100 µM (inactive)
GI50 [22]: > 100 µM (inactive)
GI50 [23]: > 100 µM (inactive)
GI50 [24]: > 100 µM (inactive)
GI50 [25]: > 100 µM (inactive)
GI50 [26]: 17.4 µM (inactive)
GI50 [27]: > 100 µM (inactive)
GI50 [28]: > 100 µM (inactive)
GI50 [29]: > 100 µM (inactive)
GI50 [30]: 33 µM (inactive)
GI50 [31]: > 100 µM (inactive)
GI50 [32]: > 100 µM (inactive)
GI50 [33]: > 100 µM (inactive)
GI50 [34]: > 100 µM (inactive)
GI50 [35]: > 100 µM (inactive)
GI50 [36]: > 100 µM (inactive)
GI50 [37]: > 100 µM (inactive)
GI50 [38]: 5.33 µM (inactive)
GI50 [39]: > 100 µM (inactive)
GI50 [40]: 52.1 µM (inactive)
GI50 [41]: 40.2 µM (inactive)
GI50 [42]: > 100 µM (inactive)
GI50 [43]: > 100 µM (inactive)
GI50 [44]: > 100 µM (inactive)
GI50 [45]: > 100 µM (inactive)
GI50 [46]: > 100 µM (inactive)
GI50 [47]: > 100 µM (inactive)
GI50 [48]: > 100 µM (inactive)
GI50 [49]: > 100 µM (inactive)
GI50 [50]: > 100 µM (inactive)
GI50 [51]: > 100 µM (inactive)
GI50 [52]: > 100 µM (inactive)
GI50 [53]: 84.1 µM (inactive)
GI50 [54]: > 100 µM (inactive)
GI50 [55]: 35.8 µM (inactive)
GI50 [56]: > 100 µM (inactive)
GI50 [57]: > 100 µM (inactive)

Cc1cc2nc3c(C(O)CO)nn(-c4ccccc4)c3nc2cc1C (stereo not given)
GI50 [1]: 17.9 µM (inactive)
GI50 [2]: 12.1 µM (inactive)
GI50 [3]: 12.9 µM (inactive)
GI50 [4]: 14.4 µM (inactive)
GI50 [5]: 18.8 µM (inactive)
GI50 [6]: 15.8 µM (inactive)
GI50 [8]: 15.4 µM (inactive)
GI50 [9]: 19.6 µM (inactive)
GI50 [11]: 15.3 µM (inactive)
GI50 [12]: 14.9 µM
GI50 [13]: 21.6 µM (inactive)
GI50 [14]: 19.4 µM (inactive)
GI50 [15]: 15.5 µM (inactive)
GI50 [16]: 15 µM (inactive)
GI50 [17]: 31.6 µM (inactive)
GI50 [18]: 17.3 µM (inactive)
GI50 [58]: 12.9 µM (inactive)
GI50 [19]: 16.2 µM (inactive)
GI50 [20]: 20.5 µM (inactive)
GI50 [21]: 31.3 µM (inactive)
GI50 [22]: 20.2 µM (inactive)
GI50 [23]: 22.1 µM (inactive)
GI50 [24]: 21.2 µM (inactive)
GI50 [25]: 18.3 µM (inactive)
GI50 [26]: 4.3 µM (inactive)
GI50 [28]: 30.6 µM (inactive)
GI50 [29]: 23 µM (inactive)
GI50 [30]: 12.7 µM (inactive)
GI50 [31]: 22.6 µM (inactive)
GI50 [32]: 16.1 µM (inactive)
GI50 [33]: 15.8 µM (inactive)
GI50 [34]: 20.2 µM (inactive)
GI50 [35]: 22.3 µM (inactive)
GI50 [36]: 23.2 µM (inactive)
GI50 [37]: 14.4 µM (inactive)
GI50 [38]: 6.21 µM (inactive)
GI50 [39]: 14.5 µM (inactive)
GI50 [40]: 23.7 µM (inactive)
GI50 [41]: 15.7 µM (inactive)
GI50 [42]: 20.7 µM (inactive)
GI50 [43]: 20.7 µM (inactive)
GI50 [44]: 21.4 µM (inactive)
GI50 [45]: 30.9 µM (inactive)
GI50 [47]: 13.8 µM (inactive)
GI50 [48]: 22.9 µM (inactive)
GI50 [49]: 22.4 µM (inactive)
GI50 [50]: 6.65 µM (inactive)
GI50 [51]: 20.5 µM (inactive)
GI50 [52]: 11.5 µM (inactive)
GI50 [53]: 14 µM (inactive)
GI50 [54]: 15.2 µM (inactive)
GI50 [55]: 22 µM (inactive)
GI50 [57]: 15.1 µM (inactive)
